Reference: US7217739B2, “Method for inducing cell death with carbonyl scavengers” (Arizona Board of Regents on behalf of the University of …, priority 2004, dated 2007)

What was measured:
human A431 cells = experiment: Apoptosis in squamous cell carcinoma line A431; type: cell-based; settings: 10 mM, 24 hours
Protocol: In each case, 10 mM of the test compound was used, over 24 hours, on human A431 cells, and apoptosis was measured as described, supra.

[1] = system: murine melanoma cell line B16; experiment: Apoptosis by annexin V-FITC/propidium iodide flow cytometry, B16 melanoma; type: cell-based; settings: B16 cells; continuous 24 hour exposure; D-penicillamine 10 mM
Protocol: (§1) The murine melanoma cell line B16 was used, as were three human melanoma lines, i.e., G-361, A-375, and LOX. Samples of the cells were exposed to 10 mM of D-penicillamine continuously, over a 24 hour period. Apoptosis was measured using a standard assay, i.e., flow cytometric staining using annexin V-FITC/propidium iodide. As a control, normal human skin fibroblasts, i.e., “CF3” cells, were used.

[2] = system: human melanoma cell line G-361; experiment: Apoptosis by annexin V-FITC/propidium iodide flow cytometry, G-361 melanoma; type: cell-based; settings: G-361 cells
Protocol: as §1
The compound D-penicillamine (D-P), aminoguanidine (AG), N-acetyl-D-penicillamine (NAP), N-acetyl-L-cysteine (NAC), and penicillamine disulfide (PSS) were tested. D-P, NAC and NAP are known as antioxidants. D-P and aminoguanidine are known as carbonyl scavengers.

[3] = system: human melanoma line A-375; experiment: Apoptosis by annexin V-FITC/propidium iodide flow cytometry, A-375 melanoma; type: cell-based
Protocol: as §1
(§2) Malignant human melanoma cells A375, and normal fibroblasts (CF3), were tested, using 10 mM of MEC, with 24 hours of exposure.

human melanoma line LOX = experiment: Apoptosis by annexin V-FITC/propidium iodide flow cytometry, LOX melanoma; type: cell-based; settings: LOX cells; continuous 24 hour exposure; D-penicillamine 10 mM
Protocol: as §1

[4] = system: normal human skin fibroblasts CF3; experiment: Apoptosis by annexin V-FITC/propidium iodide flow cytometry, normal CF3 fibroblasts; type: cell-based
Protocol: as §1, §2

[5] = system: premalignant, immortalized human keratinocytes HaCaT; experiment: Apoptosis in premalignant immortalized keratinocytes; type: cell-based; settings: HaCaT cells; 12.5 mM; continuous over 24 hours
Protocol: In these experiments, D-penicillamine was added, at a concentration of 12.5 mM, to premalignant, immortalized human keratinocytes, or “HaCaT” cells, and the exposure was Continuous over 24 hours.

[6] = system: Human HeLa cervical adenocarcinoma cells; experiment: Apoptosis in HeLa cervical adenocarcinoma cells; type: cell-based
Protocol: The efficacy of the compounds on other cancers, epithelial cancers in particular, was determined. Human HeLa cervical adenocarcinoma cells were used, and tested with D-penicillamine, at 10 mM, and aminoguanidine, at 25 mM.

[7] = system: A375 melanoma cells in collagen matrix; experiment: Dermal melanoma reconstruct, melanoma cells; type: cell-based, human; settings: 12.5 mM; A375 and CF3 cells embedded in a collagen matrix
Description: (§3) A dermal melanoma reconstruct was made, where both CF3 fibroblast and A375 melanoma cells were embedded in a collagen matrix. Seventy two hours after “seeding” in the matrix, the melanoma cells have proliferated extensively, as the controls show, in FIG. 7.

[8] = system: CF3 fibroblast in collagen matrix; experiment: Dermal melanoma reconstruct, fibroblast network; type: cell-based, human; settings: 12.5 mM; A375 and CF3 cells embedded in a collagen matrix
Description: as §3

[9] = Example 6, concentration not given

For `COC(=O)[C@H](N)C(C)(C)S` [D-penicillamine methyl ester], the induction of apoptosis (human A431 cells) was “induction of apoptosis” and the induction of apoptosis (human A431 cells; listed as D-P—OCH3) was “stronger apoptotic effect”.

In the case of `CC(C)(S)[C@@H](N)C(=O)O` [D-penicillamine, 3-mercapto-D-valine], the induction of apoptosis [1] is reported as “apoptosis was induced”, the induction of apoptosis [2, 9] is reported as “induced apoptosis” and the induction of apoptosis ([2]; continuous 24 hour exposure, D-penicillamine 10 mM) is reported as “apoptosis was induced”. For the same compound, the induction of apoptosis ([3]; A-375 cells, continuous 24 hour exposure, D-penicillamine 10 mM) was “apoptosis was induced”, the induction of apoptosis (human melanoma line LOX) was “apoptosis was induced” and the induction of apoptosis ([4]; normal CF3 cells, continuous 24 hour exposure, D-penicillamine 10 mM) was “no change”. For the same compound, the induction of apoptosis [5] was “apoptosis is indicated”, the induction of apoptosis (human A431 cells) was “induction of apoptosis” and the induction of apoptosis ([6]; 10 mM) was “apoptosis inducers”. The “elimination of melanoma cells from dermal melanoma reconstruct” value [7] was “eliminated the melanoma cells” and the “structure integrity of the fibroblast collagen network” value [8] was “maintained the structure integrity of the fibroblast collagen network”.

With `CCC(C)(S)[C@H](N)C(=O)O` (stereo partly drawn) [MEC, 3-methyl-3-ethyl-L-cysteine] the induction of apoptosis ([3]; A375 cells, 10 mM of MEC, 24 hours of exposure) was “Pronounced induction of apoptosis” and the induction of apoptosis ([4]; normal CF3 fibroblasts, 10 mM of MEC, 24 hours of exposure) was “none was observed”.

`N=C(N)NN` [aminoguanidine] was tested, and the induction of apoptosis [2, 9] was “induced apoptosis” and the induction of apoptosis ([6]; 25 mM) was “apoptosis inducers”.
